# Measurements taken from US20070059294A1, “Therapeutiv preparation for hematopoietic disease” (priority 2003, published 2007).
# Tests used:
# Assay type in all cases: cell-based, mouse
# [1] = tested on: syno^−/− MEFs; assay: TUNEL apoptosis assay of MEFs treated with apoptotic stimuli; details: thapsigargin 1 μM 48 h, tunicamycin 10 ng/ml 48 h; for proportion of apoptotic (TUNEL-positive) cells: syno^−/− MEFs, low serum (1% FCS), anti-Fas 1 μg/ml 48 h
# Description: (§1) Apoptosis can be induced through several pathways. To identify the apoptotic pathway that describes Synoviolin involvement, mouse embryonic fibroblasts (MEFs) isolated from syno^−/− and wild-type mice were treated in vitro with the following four apoptotic stimuli, monoclonal anti-Fas antibodies (Abs), gamma-irradiation, tunicamycin (N-glycosylation inhibitor), and thapsigargin (Ca^2-ATPase inhibitor). Under control conditions, the proportion of syno^−/− MEF apoptotic cells was higher (16±4%) than MEF wild-type (6±2%, FIG. 5A). […] Moreover, the sensitivity against ER stress-induced agents was increased in a dose-dependent fashion (FIG. 5B).
# (§2) Tissues were prepared as described above. Conditioned culture cells were fixed in 10% formalin for 15 minutes and attached to APS-coated slide glasses. These specimens were subjected to TUNEL assay. TUNEL assay was performed according to the protocol provided by the manufacturer (Apoptosis in situ detection kit; Wako, Osaka, Japan).
# (§3) MEFs were isolated from E10.5 embryos of syno^−/− and wild-type mice by trypsin digestion after removal of the head and internal organs. Isolated cells were cultured in Dulbecco's modified Eagle's medium containing 20% fetal calf serum (FCS).
# (§4) (A) MEFs derived from syno^+/+ and syno^−/− mice were treated with various apoptotic stimuli, including anti-Fas monoclonal antibodies (1μg/ml for 48 hours), X-irradiation (6 Gy for 72 hours), thapsigargin (1 μM for 48 hours) and tunicamycin (10 ng/ml for 48 hours), or untreated (−), in low serum (1%FCS) medium. Apoptotic cells were detected by TUNEL analysis. (B) syno^+/+ and syno^−/− MEFs were treated with indicated dose of stimuli. Apoptosis was measured by quantitation of DNA fragmentation using the cell death detection ELISA method (Boehringer Mannheim). *p<0.01. The number of apoptotic syno^−/− MEFs was higher in cultures treated with thapsigargin and tunicamycin compared with the respective syno^+/+ MEFs. (C) syno^+/+ and syno^−/− MEFs were infected with adenovirus vector (100 moi) carrying LacZ(−) or synoviolin gene(+), then treated with the same aforementioned agents. In syno^−/− MEFs, ER-stress induced apoptosis was rescued by infection with synoviolin.
# [2] = tested on: wild-type MEFs; assay: as above; details: low serum (1% FCS), anti-Fas 1 μg/ml 48 h, thapsigargin 1 μM 48 h, tunicamycin 10 ng/ml 48 h
# Description: as §1, §2, §3, §4
# [3] = tested on: syno^−/− MEFs; assay: DNA fragmentation, cell death detection ELISA; details: indicated doses of stimuli, FIG. 5B, p<0.01
# Description: as §4
Compound,proportion of apoptotic (TUNEL-positive) cells [1],increase in number of TUNEL-positive syno^−/− MEFs compared with wild-type MEFs [1],proportion of apoptotic (TUNEL-positive) cells [2],number of apoptotic syno^−/− MEFs compared with the respective syno^+/+ MEFs [3]
C/C=C(/C)C(=O)O[C@H]1C(C)=C2[C@H]([C@@H]1OC(=O)CCCCCCC)[C@@](C)(OC(C)=O)C[C@H](OC(=O)CCC)[C@@]1(O)[C@H]2OC(=O)[C@@]1(C)O [thapsigargin],90±1%,2.4 fold,38±7%,higher
tunicamycin,56±3%,1.7 fold,33±7%,higher
